Marks after values point to notes of the source that are not given here.
Tests used:
[1] = Comparative storage stability of sodium and calcium salts (Example 42); assay type: physicochemical; details: for Tri50c (w/w %, LOD corr.): corrected for loss on drying
Description: In both studies the active pharmaceutical ingredient was stored in grip sealed double bags within a PE/PP screw cap closed cylinder.

[2] = Maximum solution concentration with and without pH control; assay type: physicochemical
beagle dogs = experiment: Intravenous administration in beagle dogs, PK/PD (thrombin time, APTT); assay type: in vivo; details: 1.0 mg/kg i.v.
Method: Plasma concentrations were measured using an LCMS/MS method.
Blood samples were taken into 3.8% tri-sodium citrate (1+8) at pre dose, 2, 5, 10, 20, 30, minutes post dose and then at 1, 2, 3, 4, 6, 8, 12 and 24 hours post dose. Plasma was prepared by centrifugation and frozen at minus 20° C. pending analysis.

healthy male subjects = experiment: Intravenous administration into humans (randomised double blind placebo study); assay type: in vivo; details: intravenous infusion
Method: The test consisted of three groups, each of six males. From each group 5 men were given the active ingredient and 1 was given a placebo.
Total I.V. administered doses were: • 82 mg (7 mg intravenous bolus (over 30 s) followed by an infusion of 25 mg/h for 3 hours). • 130 mg (10 mg intravenous bolus (over 30 s) followed by an infusion of 40 mg/h for 3 hours). • 120 mg (by infusion of 40 mg/h for 3 hours).

[3] = tested on: dogs undergoing hypothermic CPB; experiment: Simulated mitral valve repair in dogs undergoing hypothermic CPB; assay type: in vivo, beagle dogs; details: intravenous, dogs on CPB
Method: Following a dose ranging study in conscious dogs, six beagle dogs were placed on CPB and underwent a simulated mitral valve repair. A range of dynamic coagulation markers were measured, including thrombin clotting time (TT), activated partial thromboplastin time (APTT), activated clotting time (ACT), ecarin clotting time (ECT), whole blood thrombin clotting time, platelet counts and function tests. In addition, pre and post-operative echocardiograms and intra-operative blood loss were evaluated. […] By virtue of its predictable anticoagulant efficacy and controlled duration of action, TGN 255 offers potential in on pump and off pump coronary bypass procedures.

[4] = Stability: HPLC assay before and after drying over phosphorus pentoxide for 1 week; assay type: physicochemical; details: dry
Method: An assay of TRI 50c and its sodium and lysine salts before and after drying.
For sample analysis, 5 mg of dried and non-dried material was weighed in a 5 mL volumetric flask and dissolved in 1 mL acetonitrile and filled up with demineralised water to 5 mL.
The quantitative evaluation was performed using an HPLC-PDA method.

COCCC[C@H](NC(=O)[C@@H]1CCCN1C(=O)[C@@H](Cc1ccccc1)NC(=O)OCc1ccccc1)B([O-])O.COCCC[C@H](NC(=O)[C@@H]1CCCN1C(=O)[C@@H](Cc1ccccc1)NC(=O)OCc1ccccc1)B([O-])O.[Ca+2] [TRI 50c calcium salt]
Tri50c (w/w %, LOD corr.) ([1]; T = 0): (99.7) w/w % | Tri50c (w/w %, LOD corr.) ([1]; T = 1, 25° C./60% r.h.): (101.5) w/w % | Tri50c (w/w %, LOD corr.) ([1]; T = 1, 40° C./75% r.h.): (100.6) w/w % | Tri50c (w/w %, LOD corr.) ([1]; T = 1, −20° C.): (102.7)^x w/w % | Tri50c (w/w %, LOD corr.) ([1]; T = 3, 25° C./60% r.h.): (104.3) w/w % | Tri50c (w/w %, LOD corr.) ([1]; T = 3, 40° C./75% r.h.): (82.0) w/w % | Tri50c (w/w %, LOD corr.) ([1]; T = 3, −20° C.): (103.0)^x w/w % | TRI 50c (w/w) ([1]; T = 12 25° C./60% r.h.): 94.8 w/w

COCCC[C@H](NC(=O)[C@@H]1CCCN1C(=O)[C@@H](Cc1ccccc1)NC(=O)OCc1ccccc1)B(O)O.[Na+] [TRI 50c sodium salt, Cbz-(R)-Phe-(S)-Pro-(R)-Mpg-B(OH)2 monosodium salt]
Maximum concentration ([2]; control solution, about pH 7): about 20 mg/ml | Concentration of solution obtainable ([2]; pH of about 9.5, pH not controlled): about 600 mg/ml | APTT elevation (beagle dogs): 1.3 times | Effect on thrombin time (TT) (healthy male subjects): rapid, dose-related increase | Anticoagulation during bypass and surgery [3]: excellent anticoagulation | Bleeding during bypass and surgery [3]: little bleeding

COCCC[C@H](NC(=O)[C@@H]1CCCN1C(=O)[C@@H](Cc1ccccc1)NC(=O)OCc1ccccc1)B(O)O [TRI 50c, Cbz-(R)-Phe-(S)-Pro-(R)-boroMpg-OH]
Amount [4]: 1000.0 µg/mL

From US20120040904A1, “Boronate Medicaments for Preventing Thrombosis During Surgery” (Trigen Holdings AG, priority 2004, published 2012)
